Data reported in patent US11230524B2, “Myocyte enhancer factor 2 (MEF2) modulators” (STANDARD LLC, priority 2017, dated 2022).
Counter-ions that a name gives are not always drawn.

Legend:
Assay type in all cases: cell-based
[1] = target: MEF2D/HDAC4 protein-protein interactions (Homo sapiens (Human), UniProt Q14814); test: Mammalian two-hybrid assay, inhibition of MEF2D and HDAC4 protein interactions (luciferase reporter in HeLa cells); conditions: HeLa cells co-transfected with GAL4-MEF2D, HDAC4-VP16 and Gal4Luc; overnight treatment; luciferase normalized to Renilla
Source text: Detection of MEF2D and HDAC4 interactions. In this mammalian two-hybrid assay, HDAC4 and MEF2D proteins were used. […] Human epithelial carcinoma cells (HeLa) were co-transfected with the two DNA constructs (GAL4-MEF2D and HDAC4-VP16) and a reporter plasmid (Gal4Luc). […] MEF2D and HDAC4 protein interactions were detected as a result of the GAL4-MEF2D and HDAC4-VP16 protein complex binding a DNA promoter on the reporter plasmid (Gal4Luc) and driving cellular expression of a luciferase gene. The measured luciferase protein signal was proportional to the amount of MEF2D and HDAC4 protein interactions occurring with the cell.
The HDAC4 fragment lacked the catalytic domain so that the deacetylase activity was excluded from the assay.
Detection of inhibition of MEF2D and HDAC4 interactions. Next, the assay was used to test whether the compounds could disrupt the interactions between MEF2D and HDAC4. After co-expressing the GAL4-MEF2D and HDAC4-VP16 DNA constructs and reporter plasmid, the HeLa cells were treated with a test compound (10 μM) overnight. Cells transfected with the positive control GAL4VP16 fusion construct and reporter plasmid were also treated with the test compound (10 μM) overnight. As another control, DMSO was added (but kept below 0.2% V/V) to cells transfected with the positive GAL4VP16 fusion construct or the GAL4-MEF2D and HDAC4-VP16 DNA constructs. A luciferase assay was performed as described above according to the manufacturer's protocol (Promega). The luciferase response was normalized against the Renilla Luciferase as an internal control.
The relative activity and IC50 calculations. […] The relative activity, I, was the ratio of former to later, i.e. X/Y, expressed in percentile. […] The IC50 was the concentration of the compounds when X/Y equals 50.

[2] = target: MEF2D/p300 protein-protein interactions (Homo sapiens (Human), UniProt Q14814); test: Mammalian two-hybrid assay, inhibition of MEF2D and P300 protein interactions (luciferase reporter in HeLa cells); conditions: HeLa cells co-transfected with GAL4-MEF2D, P300-VP16 and Gal4Luc
Source text: Detection of MEF2D and P300 interactions. The same system that was used in Example 19 is used in here to detect MEF2D and P300 interactions. In this assay, two separate DNA constructs were made with MEF2D fused with the GAL4 DNA binding domain (GAL4-MEF2D) and P300 fused with the viral transactivator VP-16 ([…]). Human epithelial carcinoma cells (HeLa) were co-transfected with the two DNA constructs (GAL4-MEF2D and P300-VP16) and a reporter plasmid (Gal4Luc). […] MEF2D and P300 protein interactions were detected as a result of the GAL4-MEF2D and P300-VP16 protein complex binding a DNA promoter on the reporter plasmid (Gal4Luc) and driving cellular expression of a luciferase gene. The measured luciferase protein signal was proportional to the amount of MEF2D and P300 protein interactions occurring with the cell.
The relative activity and IC50 calculations. The IC50 concentrations were calculated in the same manner as described for Example 19.

[3] = test system: neonatal rat ventricular myocytes (NRVMs); test: Inhibition of fetal calf serum induced cardiomyocyte hypertrophy in vitro; conditions: serum-starved NRVMs, 5% FCS, myocyte size 48 hours after treatment, concentration reducing FCS-induced hypertrophy by 50%; for IC50: Rattus norvegicus, Ventricular myocyte
Method: To evaluate the ability of the test compounds to inhibit cardio myocyte hypertrophy in vitro, serum-starved neonatal rat ventricular myocytes (NRVMs) were exposed to medium with 5% Fetal Calf Serum (FCS), a powerful activator of myoctye growth (hypertrophy) and treated with one of the compounds at doses ranging from 0.2-10 μM or with the vehicle (dimethyl sulfoxide (DMSO)). Control cells received fresh media without serum. The myocyte size was determined 48 hours after treatment. The results in Table 7 show the concentrations of the test compounds required to reduce the FCS-induced hypertrophy in the NRVMs by 50% (IC50 μM).

Sequence of MEF2D/HDAC4 protein-protein interactions (Q14814 whole entry, species assumed, the tested form may be a part): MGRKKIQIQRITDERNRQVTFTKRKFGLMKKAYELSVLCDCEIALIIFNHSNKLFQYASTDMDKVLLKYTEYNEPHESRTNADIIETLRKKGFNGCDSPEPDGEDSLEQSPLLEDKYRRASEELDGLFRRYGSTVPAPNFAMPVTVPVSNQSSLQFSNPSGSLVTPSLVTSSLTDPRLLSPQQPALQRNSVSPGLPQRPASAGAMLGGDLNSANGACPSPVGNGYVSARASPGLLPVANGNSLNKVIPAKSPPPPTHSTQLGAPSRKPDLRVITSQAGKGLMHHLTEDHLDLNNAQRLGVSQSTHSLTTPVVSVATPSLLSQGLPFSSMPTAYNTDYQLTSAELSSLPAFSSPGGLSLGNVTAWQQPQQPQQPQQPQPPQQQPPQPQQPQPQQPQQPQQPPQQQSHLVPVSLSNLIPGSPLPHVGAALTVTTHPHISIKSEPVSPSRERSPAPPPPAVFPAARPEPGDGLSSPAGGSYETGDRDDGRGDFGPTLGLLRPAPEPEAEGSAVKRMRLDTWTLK
Sequence of MEF2D/p300 protein-protein interactions (Q14814 whole entry, species assumed, the tested form may be a part): as above

| SMILES | IC50 [1] [µM] | IC50 [2] [µM] | IC50 [3] [µM] | IC50, inhibition of cardiomyocyte hypertrophy in vitro [3] |
| --- | --- | --- | --- | --- |
| Nc1ccccc1NC(=O)/C=C/c1cccc(CNc2ccccc2)c1 [ST1, (E)-N-(2-aminophenyl)-3-(3-((phenylamino)methyl)phenyl)acrylamide] | 9.4 | 0.38 | 0.81 | – |
| CCOc1cccc(NCc2cccc(/C=C/C(=O)Nc3ccccc3N)c2)c1 [ST4, (E)-N-(2-aminophenyl)-3-(3-(((3-ethoxyphenyl)amino)methyl)phenyl)acrylamide] | 1.07 | 1.1 | 4.37 | – |
| Nc1ccccc1NC(=O)/C=C/c1cccc(CNc2cccc(OC3CC3)c2)c1 [ST7, (E)-N-(2-aminophenyl)-3-(3-(((3-cyclopropoxyphenyl)amino)methyl)phenyl)acrylamide] | 1.6 | 1.6 | 0.46 | – |
| Nc1ccccc1NC(=O)/C=C/c1cccc(CNCc2cccc(OC3CC3)c2)c1 [ST13] | 1.52 | 0.79 | 0.12 | – |
| Nc1ccccc1NC(=O)/C=C/c1cccc(CNCc2cccc(OC3CCC3)c2)c1 [ST14] | 1.52 | 0.94 | 0.15 | – |
| Cc1[nH]c2ccccc2c1CCNCc1cccc(/C=C/C(=O)Nc2ccccc2N)c1 [ST49, (E)-N-(2-aminophenyl)-3-(3-(((2-(2-methyl-1H-indol-3-yl)ethyl)amino)methyl)phenyl)acrylamide] | – | – | 1.23 | – |
| Nc1ccccc1NC(=O)/C=C/c1cccc(CNc2ccc3ccccc3c2)c1 [ST54, (E)-N-(2-aminophenyl)-3-(3-((naphthalen-2-ylamino)methyl)phenyl) Acrylamide] | – | – | 1.16 | – |
| Nc1ccccc1NC(=O)/C=C/c1cccc(CNc2ccc3ncccc3c2)c1 [ST55, (E)-N-(2-aminophenyl)-3-(3-((quinolin-6-ylamino)methyl)phenyl)acrylamide] | 4.53 | 0.51 | 9.26 | – |
| Nc1ccccc1NC(=O)/C=C/c1cccc(CNc2nc(C(F)(F)F)co2)c1 [ST63, (E)-N-(2-aminophenyl)-3-(3-((4-(trifluoromethyl)oxazol-2-ylamino)methyl)phenyl)acrylamide] | 1.85 | 2.73 | 4.2 | – |
| Cc1csc(NCc2cccc(/C=C/C(=O)Nc3ccccc3N)c2)n1 [ST66, (E)-N-(2-aminophenyl)-3-(3-((4-methylthiazol-2-ylamino)methyl)phenyl)acrylamide] | 2.48 | 1.69 | 1420 | – |
| CCOC(=O)NC(CCCCC(=O)Nc1ccccc1N)C(=O)Nc1cccc(OC2CC2)c1 (centres unmarked) [ST83, ethyl (7-((2-aminophenyl)amino)-1-((3-cyclopropoxyphenyl)amino)-1,7-dioxoheptan-2-yl)carbamate] | 0.84 | 0.44 | 3.85 | – |
| Nc1ccccc1NC(=O)CCCCC(NC(=O)c1cccnc1)C(=O)Nc1cccc(Br)c1 (centres unmarked) [ST93, N^7-(2-aminophenyl)-N^1-(3-bromophenyl)-2-(nicotinamido)heptanediamide] | 0.61 | 1.08 | 5500 | – |
| COC(=O)NC(CCCCC(=O)Nc1ccccc1N)C(=O)Nc1cccc(OCC(F)(F)F)c1 (centres unmarked) [ST102, methyl (7-((2-aminophenyl)amino)-1,7-dioxo-1-((3-(2,2,2-trifluoroethoxy)phenyl)amino)heptan-2-yl)carbamate hydrochloride] | 0.94 | 1.2 | 0.71 | – |
| CCOC(=O)N[C@@H](CCCCC(=O)Nc1ccccc1N)C(=O)Nc1cccc(Br)c1 [ST104, (S)-ethyl (7-((2-aminophenyl)amino)-1-((3-bromophenyl)amino)-1,7-dioxoheptan-2-yl)carbamate] | 0.47 | 0.38 | 2.89 | – |
| COC(=O)NC(CCCCC(=O)Nc1ccccc1N)C(=O)Nc1nc(-c2ccncc2)cs1 (centres unmarked) [ST116, methyl (7-((2-aminophenyl)amino)-1,7-dioxo-1-((4-(pyridin-4-yl)thiazol-2-yl)amino)heptan-2-yl)carbamate] | 0.57 | 0.27 | 4400 | – |
| COC(=O)NC(CCCCC(=O)Nc1ccccc1N)C(=O)Nc1cccc2cccnc12 (centres unmarked) [ST119, methyl (7-((2-aminophenyl)amino)-1,7-dioxo-1-(quinolin-8-ylamino)heptan-2-yl)carbamate] | 0.39 | 0.14 | 0.079 | – |
| CCOC(=O)NC(CCCCC(=O)NCc1cncc(OCC)c1)C(=O)NCc1cncc(OCC)c1 (centres unmarked) [ST129] | 20 | 20 | – | no inhibition |
